Assay results: US7053234B2 (Amgen Inc., priority 2000, dated 2006)
In brackets after ≈: the same amount, converted by molar mass. Where two headings read alike, the source gives them in different places.

Key:
RNA-pol S. aureus = RNA-pol S. aureus (Staphylococcus aureus, UniProt P47768+Q2G0N5); assay: RNA polymerase inhibition assay (S. aureus enzyme); format: biochemical; conditions: Table 2; read-out: RNA-pol IC50 (μM) S. aureus
S. aureus = assay: MIC determination, S. aureus; format: cell-based; conditions: Staphylococcus aureus
Protocol: The compound is added and two-fold dilutions are made. The final volume in the 96-well plate is about 100 uL. The plate is incubated at 37° C. in the dark with shaking. After 16 hours of incubation, growth is monitored by reading A600 or by visual inspection. […] Methods for dilution antimicrobial susceptibility tests for bacteria that grow aerobically. Approved standard M7-A3; National Committee for Clinical Laboratory Standards: Villanova, Pa.

E. coli (tolC) = assay: MIC determination, E. coli (tolC); format: cell-based; conditions: Escherichia coli
Protocol: (§1) For MIC determinations for selected bacteria, log phase growing bacteria are re-suspended at 1×10^5 bacteria per mL in LB medium. The compound is added and two-fold dilutions are made. The final volume in the 96-well plate is about 100 uL. The plate is incubated at 37° C. in the dark with shaking. After 16 hours of incubation, growth is monitored by reading A600 or by visual inspection. MIC is defined as the minimum concentration of drug resulting in inhibition of visible growth of bacterial under the conditions described (above) in National Committee for Clinical Laboratory Standards 1993. Methods for dilution antimicrobial susceptibility tests for bacteria that grow aerobically. Approved standard M7-A3; National Committee for Clinical Laboratory Standards: Villanova, Pa.

[1] = biological target: T1, Sigma^70 saturated E. coli RNA Polymerase (Escherichia coli, UniProt P0A8T7+P0A8V2); assay: RNA polymerase inhibition assay (E. coli enzyme); format: biochemical; conditions: Table 1; enzyme not named, method uses E. coli RNA polymerase; read-out: IC50
T1 construct: purchased Epicenter
Protocol: The compounds of the present invention can be evaluated for antibacterial activity in a variety of assay formats known to those of skill in art. The specific assays used to select the most appropriate compound for use will typically depend on the targeted bacteria or infection. One common assay involves evaluation of the compounds as RNA polymerase inhibitors. In this assay, buffer (250 mM KCl, 5% Glycerol, 10 mM MgCl2, 0.1 mg/ml BSA) is combined with 6 mM B-M.E., PT5 DNA template, and 1.3 ug/rxn Sigma^70 saturated E. coli RNA Polymerase (Epicenter). The compound is then added in a manner not to exceed 5% DMSO. Nucleotide triphosphates are then added at the following concentration: 250 uM ATP, […] and UTP with 100 uM cold CTP and 50 uM alpha ^32P CTP. The mixture is incubated for 10 min at about 37° C. A [2×] loading buffer is added and the mixture is then run on a 6% urea denaturing PAGE until bromophenol blue reaches the edge of plate. The gel is soaked (about 20 minutes in 10% MeOH and 10% acetic acid, to remove urea), then dried (about 55 minutes at about 85° C. (BioRad Gel Drier)) and exposed to a Phospho Imaging Plate for 1 hour. The plate is then read on a Fujix Bas1000 Imaging System and quantified using MacBas v2.0 software. An IC50 (in uM) can be calculated as the concentration of a drug which reduces the enzyme activity to 50% of the control.

B. su = assay: MIC determination, B. su; format: cell-based; conditions: Table 1, 16 hours at 37° C. in LB medium, read-out: B. su (bacterial MIC)
Protocol: as §1

[2] = Table 2, read-out: MIC (μM) S. aureus
[3] = read-out: MIC (μM) E. coli (tolC)
[4] = Table 1, MIC, 16 hours at 37° C. in LB medium, read-out: S. au (bacterial MIC)
[5] = 16 h, read-out: E. c(tolC) (bacterial MIC)

Chain of RNA-pol S. aureus (Q2G0N5 whole entry): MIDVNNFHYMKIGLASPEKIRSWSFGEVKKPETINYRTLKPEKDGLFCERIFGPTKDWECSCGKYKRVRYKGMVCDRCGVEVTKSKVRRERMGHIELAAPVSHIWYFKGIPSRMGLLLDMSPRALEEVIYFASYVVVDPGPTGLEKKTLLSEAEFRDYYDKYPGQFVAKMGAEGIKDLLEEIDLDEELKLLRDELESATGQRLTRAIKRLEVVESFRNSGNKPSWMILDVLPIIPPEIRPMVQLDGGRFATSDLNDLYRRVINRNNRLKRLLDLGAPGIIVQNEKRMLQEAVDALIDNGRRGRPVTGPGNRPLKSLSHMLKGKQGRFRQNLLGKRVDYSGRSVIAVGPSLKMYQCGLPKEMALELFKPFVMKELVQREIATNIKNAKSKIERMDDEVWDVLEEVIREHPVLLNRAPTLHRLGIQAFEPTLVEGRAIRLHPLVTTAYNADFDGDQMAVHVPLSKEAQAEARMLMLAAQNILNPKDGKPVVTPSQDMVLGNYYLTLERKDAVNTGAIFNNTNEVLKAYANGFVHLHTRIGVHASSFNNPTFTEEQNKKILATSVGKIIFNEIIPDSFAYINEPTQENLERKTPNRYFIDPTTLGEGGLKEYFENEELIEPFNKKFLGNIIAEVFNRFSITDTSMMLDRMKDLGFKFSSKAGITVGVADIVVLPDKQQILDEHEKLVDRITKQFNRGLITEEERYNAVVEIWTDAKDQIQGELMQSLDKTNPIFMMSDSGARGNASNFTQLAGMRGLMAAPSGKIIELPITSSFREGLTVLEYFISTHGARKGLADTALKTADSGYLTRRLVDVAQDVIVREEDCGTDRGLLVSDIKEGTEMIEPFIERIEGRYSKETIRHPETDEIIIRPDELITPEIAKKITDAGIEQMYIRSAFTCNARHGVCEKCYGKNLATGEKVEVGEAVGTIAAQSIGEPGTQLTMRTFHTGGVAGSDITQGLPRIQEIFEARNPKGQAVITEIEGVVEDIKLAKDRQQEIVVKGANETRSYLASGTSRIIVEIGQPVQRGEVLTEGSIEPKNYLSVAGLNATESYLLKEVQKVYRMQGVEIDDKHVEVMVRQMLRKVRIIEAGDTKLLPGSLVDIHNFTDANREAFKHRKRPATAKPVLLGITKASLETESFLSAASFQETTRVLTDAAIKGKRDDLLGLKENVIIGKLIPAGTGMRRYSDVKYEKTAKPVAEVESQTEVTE
Chain of RNA-pol S. aureus (Q2FW32 whole entry, further chain): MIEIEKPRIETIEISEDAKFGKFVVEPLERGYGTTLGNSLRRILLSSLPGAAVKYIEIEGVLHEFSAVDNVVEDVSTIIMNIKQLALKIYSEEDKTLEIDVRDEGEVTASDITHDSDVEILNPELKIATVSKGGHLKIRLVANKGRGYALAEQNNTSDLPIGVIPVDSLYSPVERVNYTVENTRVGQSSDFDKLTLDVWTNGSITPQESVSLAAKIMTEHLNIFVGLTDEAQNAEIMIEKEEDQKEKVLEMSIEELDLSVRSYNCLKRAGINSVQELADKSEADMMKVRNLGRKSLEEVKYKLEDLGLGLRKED
Chain of RNA-pol S. aureus (P47768 whole entry): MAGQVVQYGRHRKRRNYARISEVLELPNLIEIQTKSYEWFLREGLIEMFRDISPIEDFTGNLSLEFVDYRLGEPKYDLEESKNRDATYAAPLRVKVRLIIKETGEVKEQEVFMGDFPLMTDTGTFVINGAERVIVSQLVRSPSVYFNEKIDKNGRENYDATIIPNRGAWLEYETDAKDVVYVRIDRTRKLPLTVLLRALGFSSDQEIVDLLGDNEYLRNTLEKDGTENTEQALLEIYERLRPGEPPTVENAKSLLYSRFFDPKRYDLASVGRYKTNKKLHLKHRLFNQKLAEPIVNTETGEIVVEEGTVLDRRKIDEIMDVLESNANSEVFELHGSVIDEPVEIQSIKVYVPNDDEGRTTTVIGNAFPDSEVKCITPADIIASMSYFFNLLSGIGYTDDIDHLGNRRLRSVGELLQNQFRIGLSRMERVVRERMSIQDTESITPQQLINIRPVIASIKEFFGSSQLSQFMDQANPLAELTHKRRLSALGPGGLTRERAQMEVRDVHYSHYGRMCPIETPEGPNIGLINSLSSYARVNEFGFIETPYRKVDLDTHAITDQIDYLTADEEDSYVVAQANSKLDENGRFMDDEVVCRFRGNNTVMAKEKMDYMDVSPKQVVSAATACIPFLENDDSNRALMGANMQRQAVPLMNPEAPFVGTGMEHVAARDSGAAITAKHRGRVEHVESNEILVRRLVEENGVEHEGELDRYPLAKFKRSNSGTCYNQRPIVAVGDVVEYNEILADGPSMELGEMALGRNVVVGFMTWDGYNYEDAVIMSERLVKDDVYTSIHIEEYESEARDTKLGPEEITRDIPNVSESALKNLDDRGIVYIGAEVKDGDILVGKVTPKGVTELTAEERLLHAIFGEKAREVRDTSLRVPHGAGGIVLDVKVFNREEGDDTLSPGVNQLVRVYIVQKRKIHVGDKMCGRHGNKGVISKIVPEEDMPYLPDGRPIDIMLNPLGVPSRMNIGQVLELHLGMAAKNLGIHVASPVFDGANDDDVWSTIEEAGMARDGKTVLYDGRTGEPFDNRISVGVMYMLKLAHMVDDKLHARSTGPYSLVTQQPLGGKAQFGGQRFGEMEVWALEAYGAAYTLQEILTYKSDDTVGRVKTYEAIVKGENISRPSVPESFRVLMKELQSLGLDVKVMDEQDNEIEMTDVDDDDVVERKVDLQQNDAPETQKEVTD

Row | SMILES | IC50 (RNA-pol S. aureus) [µM] | MIC (S. aureus; [2]) [µM] | MIC (E. coli (tolC); [3]) [µM] | MIC (S. aureus; read-out: MIC (μM) S. aureus) [µM] | IC50 [1] [µM] | MIC (B. su) [µM] | MIC (S. aureus; [4]) [µM] | MIC (E. coli (tolC); [5]) [µM]
1 | O=C(Nc1cc(N2CCNC2=O)cc(C(F)(F)F)c1)Nc1ccc(Cl)c(C(F)(F)F)c1 [Compound 127] | 10 to 50 | > 125 | > 125 | – | – | – | – | –
2 | COc1cc(NC(=O)CNc2ccc(Cl)c(C(F)(F)F)c2)cc(C(F)(F)F)c1 [Compound 128] | > 50 | < 40 | < 40 | – | – | – | – | –
3 | COCC1CCCN1c1cc(NC(=O)CNc2ccc(Cl)c(C(F)(F)F)c2)cc(C(F)(F)F)c1 (stereo not drawn) [Compound 129] | > 50 | < 40 | > 125 | – | – | – | – | –
4 | O=C(CNc1ccc(Cl)c(C(F)(F)F)c1)Nc1cc(NC(=O)COc2ccc(Cl)cc2)cc(C(F)(F)F)c1 [Compound 130] | > 50 | < 40 | > 125 | – | – | – | – | –
5 | O=C(COc1ccc(Cl)cc1)Nc1cc(NCCNc2nc3cc(Cl)c(Cl)cc3[nH]2)cc(C(F)(F)F)c1 [Compound 131] | < 10 | < 40 | > 125 | – | – | – | – | –
6 | COCOc1cc(NC(=O)Nc2ccc(Cl)c(C(F)(F)F)c2)cc(C(F)(F)F)c1 [Compound 132, 1-(4-Chloro-3-trifluoromethyl-phenyl)-3-(3-methoxymethoxy-5-trifluoromethyl-phenyl)-urea] | 10 to 50 | < 40 | < 40 | – | – | – | – | –
7 | O=C(Nc1cc(O)cc(C(F)(F)F)c1)Nc1ccc(Cl)c(C(F)(F)F)c1 [Compound 133, 1-(4-Chloro-3-trifluoromethyl-phenyl)-3-(3-hydroxy-5-trifluoromethyl-phenyl)-urea] | 10 to 50 | < 40 | < 40 | – | – | – | – | –
8 | C=CCOc1cc(NC(=O)Nc2ccc(Cl)c(C(F)(F)F)c2)cc(C(F)(F)F)c1 [Compound 134] | < 10 | – | > 125 | < 40 | – | – | – | –
9 | O=C(Nc1cc(OCc2cccc(Cl)c2)cc(C(F)(F)F)c1)Nc1ccc(Cl)c(C(F)(F)F)c1 [Compound 135] | 10 to 50 | – | > 125 | – | – | – | – | –
10 | O=C(CNc1ccc(N2CCCCC2)c(C(F)(F)F)c1)Nc1cc(COc2cccc(Cl)c2)cc(C(F)(F)F)c1 [Compound 136, N-[3-(3-Chloro-phenoxymethyl)-5-trifluoromethyl-phenyl]-2-(4-piperidin-1-yl-3-trifluoromethyl-phenylamino)-acetamide] | < 10 | < 40 | > 125 | – | – | – | – | –
11 | O=C(Nc1ccc(Cl)c(C(F)(F)F)c1)OCc1cc(-n2cccc2)cc(C(F)(F)F)c1 [Compound 137] | 10 to 50 | < 40 | < 40 | – | – | – | – | –
12 | O=C(CSc1ccccc1)Nc1cc(COC(=O)Nc2ccc(Cl)c(C(F)(F)F)c2)cc(C(F)(F)F)c1 [Compound 139, (4-Chloro-3-trifluoromethyl-phenyl)-carbamic acid 3-(2-phenylsulfanyl-acetylamino)-5-trifluoromethyl benzyl ester] | 10 to 50 | < 40 | < 40 | – | – | – | – | –
13 | O=C(CNc1cccc(Cl)c1)Nc1cc(NC(=O)CNc2cccc(Cl)c2)cc(C(F)(F)F)c1 [Compound 140, 2-(3-Chloro-phenylamino)-N-{3-[2-(3-chloro-phenylamino)-acetylamino]-5-trifluoromethyl-phenyl}acetamide] | – | < 40 | > 125 | – | – | – | – | –
14 | O=[N+]([O-])c1cc(C(=NO)Nc2ccccc2)ccc1Cl [Example 15] | – | – | – | – | 10 to 50 | > 125 | > 125 | > 125
15 | ON=C(Nc1ccccc1)c1ccc(F)c(C(F)(F)F)c1 [Example 16] | – | – | – | – | 10 to 50 | 40 to 125 (≈ 11.9 to 37.3 µg/mL) | > 125 | < 40
16 | ON=C(Nc1cccc(Cl)c1)c1ccc(Cl)c(C(F)(F)F)c1 [Example 64] | – | – | – | – | < 10 | < 40 | < 40 | < 40
17 | ON=C(Nc1ccccc1)c1ccc(Cl)c(C(F)(F)F)c1 [Example 65] | – | – | – | – | < 10 | 40 to 125 (≈ 12.6 to 39.3 µg/mL) | < 40 | < 40
18 | ON=C(Nc1ccccc1)c1cc(C(F)(F)F)cc(C(F)(F)F)c1 [R′=3-CF3, R″=5-CF3, R′″=H] | – | – | – | – | > 50 | 40 to 125 (≈ 13.9 to 43.5 µg/mL) | 40 to 125 (≈ 13.9 to 43.5 µg/mL) | < 40
